25 compounds from patent US10858362B2, “Imidazopyrazinones as PDE1 inhibitors” (H. Lundbeck A/S, priority 2015, dated 2020) can be followed below.

Holding throughout (format): biochemical
In assay [1] the target is PDE1C (Homo sapiens (Human), UniProt Q14123). As to the kind of experiment: PDE1 inhibition assay, PDE1C. Particulars: for IC50: 15 nM tritium labelled cAMP. The procedure: (§1) Reactions were initiated by addition of the cyclic nucleotide substrate, and reactions were allowed to proceed for 1 h at room temperature before being terminated through mixing with 20 μL (0.2 mg) yttrium silicate SPA beads (PerkinElmer). The beads were allowed to settle for 1 h in the dark before the plates were counted in a Wallac 1450 Microbeta counter.

The target of assay [2] is PDE1B (Homo sapiens (Human), UniProt Q01064). Put plainly: PDE1 inhibition assay, PDE1B. Particulars: for IC50: 15 nM tritium labelled cAMP; for inhibition at 2 µM: read-out: PDE1B, % inhibition (at 2 μM). The procedure:
as §1

Assay [3] deals with PDE1A (Homo sapiens (Human), UniProt P54750). Put plainly: PDE1 inhibition assay, PDE1A. As to conditions: for IC50: 15 nM tritium labelled cAMP; for inhibition at 2 µM: read-out: PDE1A, % inhibition (at 2 μM). The procedure:
Reactions were initiated by addition of the cyclic nucleotide substrate, and reactions were allowed to proceed for 1 h at room temperature before being terminated through mixing with 20 μL (0.2 mg) yttrium silicate SPA beads (PerkinElmer).

The target in assay [4] is PDE9 (Homo sapiens (Human), UniProt O76083). Put plainly: PDE9 inhibition assay. On the procedure:
A PDE9 assay may for example, be performed as follows: The assay is performed in 60 μL samples containing a fixed amount of the relevant PDE enzyme (sufficient to convert 20-25% of the cyclic nucleotide substrate), a buffer (50 mM HEPES7.6; 10 mM MgCl2; 0.02% Tween20), 0.1 mg/ml BSA, 225 pCi of ^3H-labelled cyclic nucleotide substrate, tritium labeled cAMP to a final concentration of 5 nM and varying amounts of inhibitors. Reactions are initiated by addition of the cyclic nucleotide substrate, and reactions are allowed to proceed for one hr at room temperature before being terminated through mixing with 15 μL 8 mg/mL yttrium silicate SPA beads (Amersham). The beads are allowed to settle for one hr in the dark before the plates are counted in a Wallac 1450 Microbeta counter.
In the context of the present invention the assay was performed in 60 μL assay buffer (50 mM HEPES pH 7.6; 10 mM MgCl2; 0.02% Tween20) containing enough PDE9 to convert 20-25% of 10 nM ^3H-cAMP and varying amounts of inhibitors. Following a 1 hr incubation the reactions were terminated by addition of 15 μL 8 mg/mL yttrium silicate SPA beads (Amersham). The beads were allowed to settle for one hr in the dark before the plates were counted in a Wallac 1450 Microbeta counter.

PDE1B, sequence (Q01064 whole entry): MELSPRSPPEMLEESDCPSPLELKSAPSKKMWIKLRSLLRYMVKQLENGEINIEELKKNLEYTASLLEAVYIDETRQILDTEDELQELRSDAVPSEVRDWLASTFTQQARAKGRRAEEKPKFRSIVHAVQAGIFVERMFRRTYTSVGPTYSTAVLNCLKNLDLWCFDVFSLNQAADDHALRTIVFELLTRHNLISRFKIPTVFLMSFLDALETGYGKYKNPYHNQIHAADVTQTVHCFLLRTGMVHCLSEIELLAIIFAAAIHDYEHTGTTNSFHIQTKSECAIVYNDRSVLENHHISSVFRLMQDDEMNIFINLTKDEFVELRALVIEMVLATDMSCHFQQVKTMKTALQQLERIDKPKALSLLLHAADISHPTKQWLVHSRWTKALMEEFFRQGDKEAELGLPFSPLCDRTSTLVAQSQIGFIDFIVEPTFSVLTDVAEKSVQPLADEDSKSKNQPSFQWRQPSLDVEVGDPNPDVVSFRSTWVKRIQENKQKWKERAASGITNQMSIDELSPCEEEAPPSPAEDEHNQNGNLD
PDE9, sequence (O76083 whole entry): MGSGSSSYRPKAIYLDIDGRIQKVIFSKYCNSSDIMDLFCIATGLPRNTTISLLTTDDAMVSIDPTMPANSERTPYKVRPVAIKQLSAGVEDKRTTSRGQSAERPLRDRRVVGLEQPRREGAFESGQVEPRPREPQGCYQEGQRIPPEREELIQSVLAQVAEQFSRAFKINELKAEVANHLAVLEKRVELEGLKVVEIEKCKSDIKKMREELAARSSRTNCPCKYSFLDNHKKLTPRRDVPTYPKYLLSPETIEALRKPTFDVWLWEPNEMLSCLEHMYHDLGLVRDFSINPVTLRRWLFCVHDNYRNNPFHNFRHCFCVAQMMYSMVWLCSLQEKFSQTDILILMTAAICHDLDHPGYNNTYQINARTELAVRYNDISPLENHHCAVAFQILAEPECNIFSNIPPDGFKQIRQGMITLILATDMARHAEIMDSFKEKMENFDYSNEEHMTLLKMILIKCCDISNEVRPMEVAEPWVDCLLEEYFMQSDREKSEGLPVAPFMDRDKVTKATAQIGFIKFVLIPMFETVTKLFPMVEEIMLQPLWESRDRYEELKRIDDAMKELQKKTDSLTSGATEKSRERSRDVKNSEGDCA
PDE1A, sequence (P54750 whole entry): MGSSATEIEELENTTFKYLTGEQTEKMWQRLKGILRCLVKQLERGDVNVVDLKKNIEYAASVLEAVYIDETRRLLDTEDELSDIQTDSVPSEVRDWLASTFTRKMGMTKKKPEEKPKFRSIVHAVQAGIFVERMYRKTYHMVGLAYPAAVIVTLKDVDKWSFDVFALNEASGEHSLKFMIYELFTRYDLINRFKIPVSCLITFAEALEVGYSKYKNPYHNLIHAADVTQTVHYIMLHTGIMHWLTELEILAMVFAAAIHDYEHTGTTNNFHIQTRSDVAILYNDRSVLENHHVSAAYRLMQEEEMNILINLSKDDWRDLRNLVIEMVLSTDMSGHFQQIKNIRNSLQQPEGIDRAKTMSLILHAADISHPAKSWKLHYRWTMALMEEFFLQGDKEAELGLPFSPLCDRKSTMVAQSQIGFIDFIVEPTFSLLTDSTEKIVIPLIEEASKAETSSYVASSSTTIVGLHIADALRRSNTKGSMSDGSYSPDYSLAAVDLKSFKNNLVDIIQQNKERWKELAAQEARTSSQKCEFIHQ
PDE1C, sequence (Q14123 whole entry): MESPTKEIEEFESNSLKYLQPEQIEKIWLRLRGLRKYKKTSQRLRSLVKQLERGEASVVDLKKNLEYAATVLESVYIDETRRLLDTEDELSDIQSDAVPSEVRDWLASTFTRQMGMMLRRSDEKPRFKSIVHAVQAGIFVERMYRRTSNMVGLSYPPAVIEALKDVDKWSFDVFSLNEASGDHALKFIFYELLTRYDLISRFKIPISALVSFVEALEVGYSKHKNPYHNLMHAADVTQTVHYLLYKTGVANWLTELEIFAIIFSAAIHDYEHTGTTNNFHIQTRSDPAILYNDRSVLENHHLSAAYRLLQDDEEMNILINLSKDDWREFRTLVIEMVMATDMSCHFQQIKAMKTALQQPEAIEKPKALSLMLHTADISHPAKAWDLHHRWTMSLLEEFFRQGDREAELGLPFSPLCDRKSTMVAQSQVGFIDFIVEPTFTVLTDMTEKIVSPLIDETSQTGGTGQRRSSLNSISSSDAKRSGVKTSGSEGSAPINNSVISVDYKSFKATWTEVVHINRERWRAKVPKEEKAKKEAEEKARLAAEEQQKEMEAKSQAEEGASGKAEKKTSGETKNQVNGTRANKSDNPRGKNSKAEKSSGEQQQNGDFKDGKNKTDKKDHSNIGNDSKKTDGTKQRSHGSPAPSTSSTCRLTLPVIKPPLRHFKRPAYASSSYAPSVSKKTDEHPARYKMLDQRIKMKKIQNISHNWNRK

In the case of `Cc1cn2c([C@H]3C[C@@H]3C)ncc2c(=O)n1Cc1cccc(F)c1` (single isomer, unassigned; isomer 3) [35, isomer 3], the results for the IC50 in assay [1], in assay [2] and in assay [3] were 8 nM, 18 nM and 82 nM, respectively. Besides, the “% inhibition of PDE9 at 10 microM” value in assay [4] is 0%.

As for `Cc1cn2c([C@H]3C[C@H]3C)ncc2c(=O)n1Cc1cccc(F)c1` (single isomer, unassigned; isomer 4) [35, isomer 4], the IC50 (as a rule, the concentration at which inhibition is half-maximal) in assay [1] came to 85 nM; in assay [2] it was 360 nM. In addition, the “PDE1A, % inhibition (at 1 μM)” value in assay [3] (at 1 μM) worked out at 43%. The “% inhibition of PDE9 at 10 microM” value in assay [4] is on record as 5%.

For the compound `Cc1cn2c([C@H]3CCO[C@H]3C)ncc2c(=O)n1Cc1cccc(F)c1` (single isomer, unassigned; isomer 4) [36, isomer 4], in assay [1] (at 1 μM), the “PDE1C, % inhibition (at 1 μM)” value was 40%. Further, the IC50 in assay [2] amounted to 520 nM; in assay [3] it was 51 nM. Also, the “% inhibition of PDE9 at 10 microM” value in assay [4] was 11%.

Regarding `Cc1cn2c(C3CCOCC3)ncc2c(=O)n1C[C@H]1CC[C@@H](C)CC1` [66, cis], the IC50 in assay [1] was 4 nM; in assay [2], 6 nM; in assay [3], 7 nM. Besides, the “% inhibition of PDE9 at 10 microM” value in assay [4] is given as −3%.

Turning to `Cc1cn2c(C3CCOCC3)ncc2c(=O)n1C[C@H]1CC[C@H](C)CC1` [66, trans], the IC50 in assay [1] is 46 nM; in assay [2] it was 11 nM; in assay [3] it was 35 nM. Also, in assay [4], the “% inhibition of PDE9 at 10 microM” value was −2%.

`CCCc1ncc2c(=O)n(Cc3cccc(F)c3)ccn12` [Example 1, 7-(3-Fluorobenzyl)-3-propylimidazo[1,5-a]pyrazin-8(7H)-one]: the IC50 in assay [1] stood at 300 nM; in assay [2] it was 790 nM; in assay [3] it was 801 nM. Moreover, the inhibition (usually the relative decrease from the control value, in per cent) at 10 µM in assay [4] is -12%.

With `O=c1c2cnc(C3CCOCC3)n2cc(Cc2ccccc2)n1Cc1cccc(F)c1` [Example 2, 6-Benzyl-7-(3-fluorobenzyl)-3-(tetrahydro-2H-pyran-4-yl)imidazo[1,5-a]pyrazin-8(7H)-one], the IC50 in assay [1] was found to be 11 nM; in assay [2], 14 nM; in assay [3] it was 51 nM. Further, the inhibition at 10 µM in assay [4] was -14%.

`O=c1c2cnc(C3CCOCC3)n2cc(Cc2ccccc2)n1CC1CCCCC1` [Example 3, 6-Benzyl-7-(cyclohexylmethyl)-3-(tetrahydro-2H-pyran-4-yl)imidazo[1,5-a]pyrazin-8(7H)-one]: the IC50 in assay [1] came out at 6 nM; in assay [2] it was 12 nM; in assay [3] it was 8 nM. In addition, the inhibition at 10 µM in assay [4] is -6%.

As to `Cc1cn2c(C3CCOCC3)ncc2c(=O)n1CC1CCCCC1` [Example 4, 7-(Cyclohexylmethyl)-6-methyl-3-(tetrahydro-2H-pyran-4-yl)imidazo[1,5-a]pyrazin-8(7H)-one], the IC50 in assay [1] stood at 7 nM; in assay [2], 25 nM; in assay [3], 11 nM. Also, the inhibition at 10 µM in assay [4] is -5%.

Take `Cc1cn2c(C3CCOCC3)ncc2c(=O)n1Cc1cccc(F)c1` [Example 5, 7-(3-Fluorobenzyl)-6-methyl-3-(tetrahydro-2H-pyran-4-yl)imidazo[1,5-a]pyrazin-8(7H)-one]: the IC50 in assay [1] was 14 nM; in assay [2], 120 nM; in assay [3], 108 nM. For the same compound, the inhibition at 10 µM in assay [4] was 18%.

As to `O=c1c2cnc(C3CC3)n2ccn1Cc1cccc(F)c1` [Example 6, 3-Cyclopropyl-7-(3-fluorobenzyl)imidazo[1,5-a]pyrazin-8(7H)-one], inhibition in assay [1] was half-maximal at 290 nM (IC50). Also, the inhibition at 2 µM in assay [2] was determined as 81%; in assay [3], 68%. Also, the inhibition at 10 µM in assay [4] came to 25%.

In turn, `O=c1c2cnc(C3CC3)n2ccn1CC1CCCC1` [Example 7, 7-(Cyclopentylmethyl)-3-cyclopropylimidazo[1,5-a]pyrazin-8(7H)-one] came in with an IC50 in assay [1] of 230 nM. The figures for the inhibition at 2 µM in assay [2] and in assay [3] were 85% and 60%, respectively. Further, in assay [4], the inhibition at 10 µM was determined as 1%.

On to `O=c1c2cnc(C3CC3)n2ccn1CC1CCCCC1` [Example 8, 7-(Cyclohexylmethyl)-3-cyclopropylimidazo[1,5-a]pyrazin-8(7H)-one], for which the IC50 in assay [1] came out at 100 nM; in assay [2] it was 67 nM; in assay [3], 252 nM. For the same compound, in assay [4], the inhibition at 10 µM came out at 9%.

Take `O=c1c2cnc(C3CCOCC3)n2ccn1Cc1cccc(F)c1` [Example 9, 7-(3-Fluorobenzyl)-3-(tetrahydro-2H-pyran-4-yl)imidazo[1,5-a]pyrazin-8(7H)-one]: the IC50 in assay [1] was found to be 170 nM. Further, the inhibition at 2 µM is 90% in assay [2] and 68% in assay [3]. Further, the inhibition at 10 µM in assay [4] was found to be 2%.

For the compound `O=c1c2cnc(C3CCOCC3)n2ccn1CC1CCCC1` [Example 10, 7-(Cyclopentylmethyl)-3-(tetrahydro-2H-pyran-4-yl)imidazo[1,5-a]pyrazin-8(7H)-one], half-maximal inhibition in assay [1] (IC50) required 79 nM. Moreover, the inhibition at 2 µM in assay [2] came to 88%; in assay [3] it was 73%. Also, in assay [4], the inhibition at 10 µM is 8%.

`O=c1c2cnc(C3CCOCC3)n2ccn1CC1CCCCC1` [Example 11, 7-(Cyclohexylmethyl)-3-(tetrahydro-2H-pyran-4-yl)imidazo[1,5-a]pyrazin-8(7H)-one]: the results for the IC50 in assay [1], in assay [2] and in assay [3] were 43 nM, 72 nM and 113 nM, respectively. Moreover, the inhibition at 10 µM in assay [4] came to 18%.

In the case of `O=c1c2cnc(C3CCOCC3)n2ccn1CC1CCCCCC1` [Example 12, 7-(Cycloheptylmethyl)-3-(tetrahydro-2H-pyran-4-yl)imidazo[1,5-a]pyrazin-8(7H)-one], the IC50 worked out at 16 nM in assay [1], 21 nM in assay [2] and 30 nM in assay [3]. In assay [4], the inhibition at 10 µM turned out to be 12%.

Consider `O=c1c2cnc(C3CC3)n2ccn1CC1CCCCCC1` [Example 13, 7-(Cycloheptylmethyl)-3-cyclopropylimidazo[1,5-a]pyrazin-8(7H)-one], for which the figures for the IC50 in assay [1], in assay [2] and in assay [3] were 62 nM, 50 nM and 87 nM, respectively. The inhibition at 10 µM in assay [4] stood at 7%.

With `Cc1cn2c(C3CCOCC3)ncc2c(=O)n1Cc1ccc(Cl)cc1` [Example 14, 7-(4-Chlorobenzyl)-6-methyl-3-(tetrahydro-2H-pyran-4-yl)imidazo[1,5-a]pyrazin-8(7H)-one], the IC50 in assay [1] was 51 nM; in assay [2], 15 nM; in assay [3] it was 18 nM. The inhibition at 10 µM in assay [4] was determined as 22%.

With `O=c1c2cnc(C3CCOCC3)n2cc(Br)n1Cc1cccc(F)c1` [Example 15, 6-Bromo-7-(3-fluorobenzyl)-3-(tetrahydro-2H-pyran-4-yl)imidazo[1,5-a]pyrazin-8(7H)-one], the IC50 was 15 nM in assay [1], 115 nM in assay [2] and 58 nM in assay [3]. The inhibition at 10 µM in assay [4] stood at 15%.

Regarding `Cc1cn2c(C3CCOCC3)ncc2c(=O)n1Cc1ccccc1` [Example 16, 7-Benzyl-6-methyl-3-(tetrahydro-2H-pyran-4-yl)imidazo[1,5-a]pyrazin-8(7H)-one], the IC50 was 12 nM in assay [1], 57 nM in assay [2] and 85 nM in assay [3]. For the same compound, in assay [4], the inhibition at 10 µM is 19%.

In the case of `Cc1cn2c(C3CCOCC3)ncc2c(=O)n1Cc1ccccc1F` [Example 17, 7-(2-Fluorobenzyl)-6-methyl-3-(tetrahydro-2H-pyran-4-yl)imidazo[1,5-a]pyrazin-8(7H)-one], the IC50 in assay [1] stood at 9 nM; in assay [2], 36 nM; in assay [3], 42 nM. The inhibition at 10 µM in assay [4] was determined as 7%.

Regarding `Cc1cn2c(C3CCOCC3)ncc2c(=O)n1Cc1cccc(Cl)c1` [Example 18, 7-(3-Chlorobenzyl)-6-methyl-3-(tetrahydro-2H-pyran-4-yl)imidazo[1,5-a]pyrazin-8(7H)-one], the IC50 in assay [1] is 8 nM; in assay [2], 49 nM; in assay [3] it was 57 nM. Also, the inhibition at 10 µM in assay [4] is 31%.

Turning to `Cc1cn2c(C3CCOCC3)ncc2c(=O)n1Cc1ccccc1Cl` [Example 19, 7-(2-Chlorobenzyl)-6-methyl-3-(tetrahydro-2H-pyran-4-yl)imidazo[1,5-a]pyrazin-8(7H)-one], the results for the IC50 in assay [1], in assay [2] and in assay [3] were 10 nM, 68 nM and 46 nM, respectively. Besides, the inhibition at 10 µM in assay [4] worked out at 18%.

On to `COc1cccc(Cn2c(C)cn3c(C4CCOCC4)ncc3c2=O)c1` [Example 20, 7-(3-Methoxybenzyl)-6-methyl-3-(tetrahydro-2H-pyran-4-yl)imidazo[1,5-a]pyrazin-8(7H)-one], for which the half-inhibitory concentration (IC50) came out at 62 nM in assay [1], 175 nM in assay [2] and 416 nM in assay [3]. Moreover, the inhibition at 10 µM in assay [4] was -38%.
